The text below walks through data of US20180319753A1, “MICROBIOCIDAL OXADIAZOLE DERIVATIVES” (SYNGENTA PARTICIPATIONS AG, priority 2015, published 2018).

For data set [1], the system named is Puccinia recondita f. Sp. Tritici. Nature of the data set: Puccinia recondita f. sp. tritici / wheat / leaf disc preventative (brown rust). The conditions noted are these: foliar, 200 ppm in the applied formulation, wheat leaf segments cv. Kanzler, inoculated 1 day after application, assessed 7 to 9 days after application, read-out: disease control compared to untreated control leaf disks. The class given is in vivo. How it is done: Leaf disks or leaf segments of various plant species are cut from plants grown in a greenhouse. The cut leaf disks or segments are placed in multiwell plates (24-well format) onto water agar. The leaf disks are sprayed with a test solution before (preventative) or after (curative) inoculation. Compounds to be tested are prepared as DMSO solutions (max. 10 mg/ml) which are diluted to the appropriate concentration with 0.025% Tween20 just before spraying. The inoculated leaf disks or segments are incubated under defined conditions (temperature, relative humidity, light, etc.) according to the respective test system. A single evaluation of disease level is carried out 3 to 14 days after inoculation, depending on the pathosystem. Percent disease control relative to the untreated check leaf disks or segments is then calculated. Wheat leaf segments cv. Kanzler were placed on agar in multiwell plates (24-well format) and sprayed with the formulated test compound diluted in water. The leaf disks were inoculated with a spore suspension of the fungus 1 day after application. The inoculated leaf segments were incubated at 19° C. and 75% relative humidity (rh) under a light regime of 12 hours light/12 hours darkness in a climate cabinet and the activity of a compound was assessed as percent disease control compared to untreated when an appropriate level of disease damage appears in untreated check leaf segments (7 to 9 days after application). The following compounds at 200 ppm in the applied formulation give at least 80% disease control in this test when compared to untreated control leaf disks under the same conditions, which show extensive disease development.

Data set [2] has the same test system. The experiment in a line: Puccinia recondita f. sp. tritici / wheat / leaf disc curative (brown rust). Format: in vivo. The conditions noted are these: foliar, 200 ppm in the applied formulation, wheat leaf segments cv. Kanzler, applied 1 day after inoculation, assessed 6 to 8 days after application, read-out: disease control compared to untreated control leaf disks. On the procedure: Leaf disks or leaf segments of various plant species are cut from plants grown in a greenhouse. The cut leaf disks or segments are placed in multiwell plates (24-well format) onto water agar. The leaf disks are sprayed with a test solution before (preventative) or after (curative) inoculation. Compounds to be tested are prepared as DMSO solutions (max. 10 mg/ml) which are diluted to the appropriate concentration with 0.025% Tween20 just before spraying. The inoculated leaf disks or segments are incubated under defined conditions (temperature, relative humidity, light, etc.) according to the respective test system. A single evaluation of disease level is carried out 3 to 14 days after inoculation, depending on the pathosystem. Percent disease control relative to the untreated check leaf disks or segments is then calculated.
Wheat leaf segments cv. Kanzler are placed on agar in multiwell plates (24-well format). The leaf segments are then inoculated with a spore suspension of the fungus. Plates were stored in darkness at 19° C. and 75% relative humidity. The formulated test compound diluted in water was applied 1 day after inoculation. The leaf segments were incubated at 19° C. and 75% relative humidity under a light regime of 12 hours light/12 hours darkness in a climate cabinet and the activity of a compound was assessed as percent disease control compared to untreated when an appropriate level of disease damage appears in untreated check leaf segments (6 to 8 days after application).
The following compounds at 200 ppm in the applied formulation give at least 80% disease control in this test when compared to untreated control leaf disks under the same conditions, which show extensive disease development.

A further data set has as its system Phakopsora pachyrhizi. The experiment in a line: Phakopsora pachyrhizi / soybean / leaf disc preventative (Asian soybean rust). The conditions noted are these: foliar, 200 ppm in the applied formulation, soybean leaf disks, inoculated one day after application, assessed 12 to 14 days after application, read-out: disease control compared to untreated control leaf disks. The class given is in vivo. In short, it runs like this: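 Read-out is percent disease control relative to untreated check discs, assessed once untreated discs show adequate disease, 12 to 14 days after application. Compounds, tested at 200 ppm in the applied formulation, are sprayed onto soybean leaf discs one day before inoculation with a spore suspension.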

The subject of data set [3] is Glomerella lagenarium (Colletotrichum lagenarium). Nature of the data set: Glomerella lagenarium (Colletotrichum lagenarium) liquid culture / cucumber / preventative (anthracnose). The class given is cell-based. The conditions noted are these: Colletotrichum orbiculare; 20 ppm in the applied formulation; liquid culture in PDB, 24° C.; 3 to 4 days after application; read-out: disease control compared to untreated control (inhibition of growth measured photometrically). In short, it runs like this: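 Photometric read-out of fungal growth 3 to 4 days after application, expressed as percent control relative to untreated wells. Plates held at 24 °C. Compound placed in DMSO before adding PDB broth seeded with conidia from cryogenic storage.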

Regarding `[O-][S+](c1ccc(-c2noc(C(F)(F)F)n2)cc1)C1CCCCC1` (stereo not drawn) [Compound 2.3, 3-(4-cyclohexylsulfinylphenyl)-5-(trifluoromethyl)-1,2,4-oxadiazole], the melting point was 108 to 114 °C. Further, the pest or weed control at 200 ppm in data set [1] is at least 80%. The pest or weed control at 200 ppm in data set [2] was at least 80%. In the data set with Phakopsora pachyrhizi, the pest or weed control at 200 ppm was at least 80%. In data set [3], the inhibition at 20 ppm is at least 80%.
With `[O-][S+](c1ccc(-c2noc(C(F)(F)F)n2)cc1)c1ccc(F)cc1F` (stereo not drawn) [Compound 2.5, 3-[4-(2,4-difluorophenyl)sulfinyl-phenyl]-5-(trifluoromethyl)-1,2,4-oxadiazole], the melting point lay within 118 to 123 °C. In data set [1], the pest or weed control at 200 ppm was at least 80%. The pest or weed control at 200 ppm in data set [2] was at least 80%. In the data set on Phakopsora pachyrhizi, the pest or weed control at 200 ppm was at least 80%. In addition, in data set [3], the inhibition at 20 ppm is at least 80%.
As to `[O-][S+](CC(F)(F)F)c1ccc(-c2noc(C(F)(F)F)n2)cc1` (stereo not drawn) [Compound 2.6, 3-[4-(2,2,2-trifluoroethylsulfinyl)phenyl]-5-(trifluoromethyl)-1,2,4-oxadiazole], the melting point was 93 to 100 °C. Also, in data set [1], the pest or weed control at 200 ppm was at least 80%. For the same molecule, the pest or weed control at 200 ppm in data set [2] is at least 80%. Besides, in the data set on Phakopsora pachyrhizi, the pest or weed control at 200 ppm is at least 80%. The inhibition at 20 ppm in data set [3] was at least 80%.
As for `[O-][S+](CCc1ccccc1)c1ccc(-c2noc(C(F)(F)F)n2)cc1` (stereo not drawn) [Compound 2.8, 3-[4-(2-phenylethylsulfinyl)phenyl]-5-(trifluoromethyl)-1,2,4-oxadiazole], the melting point is 81 to 85 °C. Also, the pest or weed control at 200 ppm in data set [1] was at least 80%. Further, the pest or weed control at 200 ppm in data set [2] is at least 80%. Also, the pest or weed control at 200 ppm in the data set on Phakopsora pachyrhizi is at least 80%. Also, in data set [3], the inhibition at 20 ppm is at least 80%.
`[O-][S+](c1ccccc1)c1ccc(-c2noc(C(F)(F)F)n2)cn1` (stereo not drawn) [Compound 2.10, 3-[6-(benzenesulfinyl)-3-pyridyl]-5-(trifluoromethyl)-1,2,4-oxadiazole] had a melting point of 91 to 97 °C. In data set [1], the pest or weed control at 200 ppm was at least 80%. The pest or weed control at 200 ppm in data set [2] was at least 80%. Besides, the pest or weed control at 200 ppm with Phakopsora pachyrhizi was at least 80%. Also, the inhibition at 20 ppm in data set [3] was at least 80%.
Molecule `Cc1cc(C)cc([S+]([O-])c2ccc(-c3noc(C(F)(F)F)n3)cc2)c1` (stereo not drawn) [Compound 2.12, 3-[4-(3,5-dimethylphenyl)sulfinyl-phenyl]-5-(trifluoromethyl)-1,2,4-oxadiazole] came in with a melting point of 71 to 83 °C. In data set [1], the pest or weed control at 200 ppm was at least 80%. The pest or weed control at 200 ppm in data set [2] is at least 80%. The pest or weed control at 200 ppm in the data set with Phakopsora pachyrhizi is at least 80%. In addition, the inhibition at 20 ppm in data set [3] is at least 80%.
`[O-][S+](Cc1ccc(-c2noc(C(F)(F)F)n2)cn1)c1ccccc1` (stereo not drawn) [Compound 2.28, 3-[6-(benzenesulfinylmethyl)-3-pyridyl]-5-(trifluoromethyl)-1,2,4-oxadiazole] came in with a melting point of 116 to 120 °C. Moreover, the pest or weed control at 200 ppm in data set [1] was at least 80%. For the same molecule, in data set [2], the pest or weed control at 200 ppm was at least 80%. Besides, the pest or weed control at 200 ppm with Phakopsora pachyrhizi is at least 80%. In addition, the inhibition at 20 ppm in data set [3] is at least 80%.
`O=S(=O)(c1ccccc1)c1ccc(-c2noc(C(F)(F)F)n2)cc1` [Compound 3.1, 3-[4-(benzenesulfonyl)phenyl]-5-(trifluoromethyl)-1,2,4-oxadiazole] returned a melting point of 128 to 132 °C. In data set [1], the pest or weed control at 200 ppm is at least 80%. The pest or weed control at 200 ppm in data set [2] was at least 80%. Further, in the data set with Phakopsora pachyrhizi, the pest or weed control at 200 ppm was at least 80%. In addition, the inhibition at 20 ppm in data set [3] is at least 80%.
In the case of `O=S(=O)(c1ccc(-c2noc(C(F)(F)F)n2)cc1)C1CCCC1` [Compound 3.16, 3-(4-cyclopentylsulfonylphenyl)-5-(trifluoromethyl)-1,2,4-oxadiazole], the melting point was 85 to 92 °C. In addition, the pest or weed control at 200 ppm in data set [1] is at least 80%. In addition, the pest or weed control at 200 ppm in data set [2] was at least 80%. Moreover, the pest or weed control at 200 ppm in the data set with Phakopsora pachyrhizi is at least 80%. In addition, the inhibition at 20 ppm in data set [3] was at least 80%.
